Assay results: patent US10370333B2 (Sanford Burnham Prebys Medical Discovery Institute, priority 2012, dated 2019)

Biological target: TNAP (Homo sapiens (Human), UniProt P05186)
Assay: TNAP (PPi) inhibition assay, pyrophosphate as substrate
Assay type: biochemical
Method in brief: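 Secreted epitope-tagged human TNAP from transiently transfected COS-1 cells, dialyzed to remove phosphate. Inhibitors tested kinetically at pH 7.4 with PPi as substrate; released phosphate quantified colorimetrically with Biomol Green reagent.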

| SMILES | IC50 |
| --- | --- |
| COc1ccc(-c2ccccc2)cc1S(=O)(=O)Nc1cnc2ccccc2c1 [Example II-6, 4-Methoxy-biphenyl-3-sulfonic acid quinolin-3-ylamide] | 100 to 1000 nM |
| COc1ccc(OC)c(S(=O)(=O)Nc2cnc3ccc(O)cc3c2)c1 [Example IX-3, N-(6-Hydroxyquinolin-3-yl)-2,5-dimethoxybenzenesulfonamide] | < 100 nM |
| COc1ccc(Cl)cc1S(=O)(=O)Nc1cncc(C(=O)NCCN(C)C)c1 [Example IV-33, 5-(5-Chloro-2-methoxyphenylsulfonamido)-N-(2-(dimethylamino)ethyl)nicotinamide] | 100 to 1000 nM |
| COc1ccc(Br)cc1S(=O)(=O)Nc1cscn1 | > 1000 nM |
| COc1ccc(OC)c(S(=O)(=O)Nc2nnc(C)o2)c1 [Example V-22, 2,5-Dimethoxy-N-(5-methyl-[1,3,4]oxadiazol-2-yl)-benzenesulfonamide] | > 1000 nM |
| COC(=O)c1ccc(-c2cncc(NS(=O)(=O)c3cc(Br)ccc3OC)c2)cc1 [Example III-29, 4-[5-(5-Bromo-2-methoxy-benzenesulfonylamino)-pyridin-3-yl]-benzoic Acid Methyl Ester] | < 100 nM |
| CCN(CC)c1ccc(NS(=O)(=O)c2cc(Br)ccc2OC)cn1 [Example VIII-9, 5-Bromo-N-(6-(diethylamino)pyridin-3-yl)-2-methoxybenzenesulfonamide] | 100 to 1000 nM |
| COc1ccc(Cl)cc1S(=O)(=O)Nc1cncc(-c2ccc(C#N)cc2)c1 [Example III-33, 5-Chloro-N-(5-(4-cyanophenyl)pyridin-3-yl)-2-methoxybenzenesulfonamide] | < 100 nM |
| COc1cccc(-c2cncc(NS(=O)(=O)c3cc(OC)ccc3OC)c2)c1 [Example III-46, 2,5-Dimethoxy-N-[5-(3-methoxy-phenyl)-pyridin-3-yl]-benzenesulfonamide] | < 100 nM |
| COc1ccc(OC)c(S(=O)(=O)Nc2cc(C)no2)c1 [Example V-6, 2,5-Dimethoxy-N-(3-methyl-isoxazol-5-yl)-benzenesulfonamide] | 100 to 1000 nM |
| O=S(=O)(Nc1cncc(-c2ccco2)c1)c1cc(Cl)ccc1OC(F)(F)F [Example XI-12, 5-Chloro-N-(5-(furan-2-yl)pyridin-3-yl)-2-(trifluoromethoxy)benzenesulfonamide] | < 100 nM |
| COc1ccc(OC)c(S(=O)(=O)Nc2cnc3ccc(C(=O)O)cc3c2)c1 [Example IX-9, 3-(2,5-Dimethoxy-benzenesulfonylamino)-quinoline-6-carboxylic Acid] | > 1000 nM |
| COc1ccc(OC(F)(F)F)cc1S(=O)(=O)Nc1cncc(-c2cnccn2)c1 [Example XI-22, 2-Methoxy-N-(5-(pyrazin-2-yl)pyridin-3-yl)-5-(trifluoromethoxy)benzenesulfonamide] | 100 to 1000 nM |
| COc1ccc(Br)cc1S(=O)(=O)Nc1cncc(-c2ncccn2)c1 [Example III-92, 5-Bromo-2-methoxy-N-(5-(pyrimidin-2-yl)pyridin-3-yl)benzenesulfonamide] | < 100 nM |
| COc1ccc(Br)cc1S(=O)(=O)Nc1cncc(-c2cccs2)c1 [Example III-74, 5-Bromo-2-methoxy-N-(5-(thiophen-2-yl)pyridin-3-yl)benzenesulfonamide] | < 100 nM |
| COc1ccc(Cl)cc1S(=O)(=O)Nc1cncc(-c2ccccc2)c1 [Example III-27, 5-Chloro-2-methoxy-N-(5-phenyl-pyridin-3-yl)-benzenesulfonamide] | < 100 nM |
| COc1c(Cl)cccc1S(=O)(=O)Nc1cnc2ccccc2c1 [Example II-12, 3-Chloro-2-methoxy-N-quinolin-3-yl-benzenesulfonamide] | > 1000 nM |
| COc1cccc(-c2cncc(NS(=O)(=O)c3cc(Br)ccc3OC)c2)c1 [Example III-47, 5-Bromo-2-methoxy-N-[5-(3-methoxy-phenyl)-pyridin-3-yl]-benzenesulfonamide] | < 100 nM |
| COc1cc(Cl)ccc1S(=O)(=O)Nc1cnc2ccccc2c1 [Example II-10, 4-Chloro-2-methoxy-N-quinolin-3-yl-benzenesulfonamide] | < 100 nM |
| CCNC(=O)c1cncc(NS(=O)(=O)c2cc(Br)ccc2OC)c1 [Example IV-18, 5-(5-Bromo-2-methoxyphenylsulfonamido)-N-ethylnicotinamide] | 100 to 1000 nM |
| C#CCN(c1cnc2ccccc2c1)S(=O)(=O)c1cc(OC)ccc1OC [Example VII-21, 2,5-Dimethoxy-N-(prop-2-yn-1-yl)-N-(quinolin-3-yl)benzenesulfonamide] | > 1000 nM |
| COc1ccc2ncc(NS(=O)(=O)c3cc(Br)ccc3OC)cc2c1 [Example IX-2, 5-Bromo-2-methoxy-N-(6-methoxyquinolin-3-yl)benzenesulfonamide] | < 100 nM |
| COCCNC(=O)c1cncc(NS(=O)(=O)c2cc(Br)ccc2OC)c1 [Example IV-21, 5-(5-Bromo-2-methoxyphenylsulfonamido)-N-(2-methoxyethyl)nicotinamide] | 100 to 1000 nM |
| COc1ccc(Br)cc1S(=O)(=O)Nc1cncc(-c2ccccc2)c1 [Example III-26, 5-Bromo-2-methoxy-N-(5-phenyl-pyridin-3-yl)-benzenesulfonamide] | < 100 nM |

| SMILES | IC50 |
| --- | --- |
| COc1ccccc1-c1cncc(NS(=O)(=O)c2cc(Cl)ccc2OC)c1 [Example III-36, 5-Chloro-2-methoxy-N-[5-(2-methoxy-phenyl)-pyridin-3-yl]-benzenesulfonamide] | < 100 nM |
| COc1ccc(Cl)cc1S(=O)(=O)Nc1cncc(C(=O)NC2CCCCC2)c1 [Example IV-30, 5-(5-Chloro-2-methoxyphenylsulfonamido)-N-cyclohexylnicotinamide] | < 100 nM |
| COc1ccc(Br)cc1S(=O)(=O)Nc1ccc(N(C)C)nc1 [Example VIII-7, 5-Bromo-N-(6-(dimethylamino)pyridin-3-yl)-2-methoxybenzenesulfonamide] | > 1000 nM |
| CCN(CC)c1ccc(NS(=O)(=O)c2cc(OC)ccc2OC)cn1 [Example VIII-10, N-(6-(Diethylamino)pyridin-3-yl)-2,5-dimethoxybenzenesulfonamide] | > 1000 nM |
| COC(=O)c1ccc2ncc(NS(=O)(=O)c3cc(OC)ccc3OC)cc2c1 [Example IX-8, 3-(2,5-Dimethoxy-benzenesulfonylamino)-quinoline-6-carboxylic Acid Methyl Ester] | 100 to 1000 nM |
| COCCN(c1cnc2ccccc2c1)S(=O)(=O)c1cc(Br)ccc1OC [Example VII-7, 5-Bromo-2-methoxy-N-(2-methoxyethyl)-N-(quinolin-3-yl)benzenesulfonamide] | > 1000 nM |
| COc1ccc(OC)c(S(=O)(=O)Nc2cncc(C(=O)NCCN(C)C)c2)c1 [Example IV-42, 5-(2,5-Dimethoxyphenylsulfonamido)-N-(2-(dimethylamino)ethyl)nicotinamide] | 100 to 1000 nM |
| COc1ccc(OC)c(S(=O)(=O)Nc2ccn(C)n2)c1 [Example V-10, 2,5-Dimethoxy-N-(1-methyl-1H-pyrazol-3-yl)-benzenesulfonamide] | > 1000 nM |
| COc1ccc(Br)cc1S(=O)(=O)Nc1ccn(C)n1 [Example V-9, 5-Bromo-2-methoxy-N-(1-methyl-1H-pyrazol-3-yl)-benzenesulfonamide] | > 1000 nM |
| C=CCN(c1cnc2ccccc2c1)S(=O)(=O)c1cc(Br)ccc1OC [Example VII-10, N-allyl-5-bromo-2-methoxy-N-(quinolin-3-yl)benzenesulfonamide] | > 1000 nM |
| COc1ccc(OC)c(S(=O)(=O)Nc2cncc(-c3cncs3)c2)c1 [Example III-82, 2,5-Dimethoxy-N-(5-(thiazol-5-yl)pyridin-3-yl)benzenesulfonamide] | < 100 nM |
| O=S(=O)(Nc1cncc(-c2cnccn2)c1)c1cc(Cl)ccc1OC(F)(F)F [Example XI-20, 5-Chloro-N-(5-(pyrazin-2-yl)pyridin-3-yl)-2-(trifluoromethoxy)benzenesulfonamide] | 100 to 1000 nM |
| COc1ccc(-c2ccoc2)cc1S(=O)(=O)Nc1cccnc1 [Example I-9, 5-Furan-3-yl-2-methoxy-N-pyridin-3-yl-benzenesulfonamide] | 100 to 1000 nM |
| COc1ccc(OC)c(S(=O)(=O)Nc2cncc(C(=O)N3CCN(C)CC3)c2)c1 [Example IV-44, 2,5-Dimethoxy-N-(5-(4-methylpiperazine-1-carbonyl)pyridin-3-yl)benzenesulfonamide] | < 100 nM |
| COc1ccc(Br)cc1S(=O)(=O)Nc1ccc(N2CCOCC2)nc1 [Example VIII-1, 5-Bromo-2-methoxy-N-(6-morpholinopyridin-3-yl)benzenesulfonamide] | > 1000 nM |
| O=S(=O)(Nc1cncc(-c2cncs2)c1)c1cc(Br)ccc1OC(F)(F)F [Example XI-26, 5-bromo-N-(5-(thiazol-5-yl)pyridin-3-yl)-2-(trifluoromethoxy)benzenesulfonamide] | < 100 nM |
| COc1ccc(Cl)cc1S(=O)(=O)Nc1cncc(-c2ncccn2)c1 [Example III-93, 5-Chloro-2-methoxy-N-(5-(pyrimidin-2-yl)pyridin-3-yl)benzenesulfonamide] | < 100 nM |
| COc1ccc(Br)cc1S(=O)(=O)Nc1nnc(C)o1 [Example V-21, 5-Bromo-2-methoxy-N-(5-methyl-[1,3,4]oxadiazol-2-yl)-benzenesulfonamide] | > 1000 nM |
| COc1ccc(OC)c(S(=O)(=O)Nc2cc[nH]n2)c1 [Example V-8, 2,5-Dimethoxy-N-(1H-pyrazol-3-yl)-benzenesulfonamide] | > 1000 nM |
| COC(=O)c1ccc2ncc(NS(=O)(=O)c3cc(Br)ccc3OC)cc2c1 [Example IX-4, 3-(5-Bromo-2-methoxy-benzenesulfonylamino)-quinoline-6-carboxylic Acid methyl ester] | < 100 nM |
| COc1ccc(OC)c(S(=O)(=O)Nc2cncc(-c3ccc(F)cc3)c2)c1 [Example III-16, N-[5-(4-Fluoro-phenyl)-pyridin-3-yl]-2,5-dimethoxy-benzenesulfonamide] | < 100 nM |
| COc1ccc(C(=O)N2CCN(C)CC2)cc1S(=O)(=O)Nc1cccnc1 [Example I-22, 2-Methoxy-5-(4-methyl-piperazine-1-carbonyl)-N-pyridin-3-yl-benzenesulfonamide] | > 1000 nM |
| COc1ccc(OC)c(S(=O)(=O)Nc2cncc(C(=O)Oc3ccccc3)c2)c1 [Example IV-15, Phenyl 5-(2,5-dimethoxyphenylsulfonamido)nicotinate] | < 100 nM |
